# Measurements reported in PubChem BioAssay (NCI).
#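 Test compounds were applied to cells in 96-well plates for 48 hours at 5 doses. The concentration for 50% growth inhibition is given as GI50. TGI: total growth inhibition.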
# Tests used:
# Assay in all cases: NCI anticancer screen, dose series, 48 h
# [1] = test system: NCI-H522 lung
# [2] = test system: BT-549 breast
# [3] = test system: A549 NSCLC
# [4] = test system: ACHN renal
# [5] = test system: MDA-MB-435
# [6] = test system: SN12C renal
# [7] = test system: SNB-75 CNS
# [8] = test system: MOLT-4 leukemia
# [9] = test system: SK-MEL-2 melanoma
# [10] = test system: HS 578T breast
# [11] = test system: EKVX NSCLC
# [12] = test system: SR leukemia
# [13] = test system: SW-620 colon
# [14] = test system: HCT-15 colon
# [15] = test system: NCI-H23 lung
# [16] = test system: OVCAR-3 ovarian
# [17] = test system: RXF 393 renal
# [18] = test system: HT29 colon
# [19] = test system: MCF7 breast
# [20] = test system: T-47D breast
# [21] = test system: KM12 colon
# [22] = test system: COLO 205 colon
# [23] = test system: LOX IMVI melanoma
# [24] = test system: U251 CNS
# [25] = test system: MDA-MB-231 breast
# [26] = test system: UO-31 renal
# [27] = test system: HCC-2998 colon
# [28] = test system: A498 renal
# [29] = test system: NCI-H460 lung
# [30] = test system: SF-268 CNS
# [31] = test system: OVCAR-5 ovarian
# [32] = test system: UACC-257 melanoma
# [33] = test system: HOP-62 NSCLC
# [34] = test system: IGROV1 ovarian
# [35] = test system: CAKI-1 renal
# [36] = test system: RPMI-8226 leukemia
# [37] = test system: SF-295 CNS
# [38] = test system: SK-OV-3 ovarian
# [39] = test system: OVCAR-8 ovarian
# [40] = test system: UACC-62 melanoma
# [41] = test system: PC-3 prostate
# [42] = test system: NCI-H226 lung
# [43] = test system: SK-MEL-28 melanoma
# [44] = test system: TK-10 renal
# [45] = test system: SK-MEL-5 melanoma
# [46] = test system: 786-0 renal
# [47] = test system: SNB-19 CNS
# [48] = test system: OVCAR-4 ovarian
# [49] = test system: SF-539 CNS
# [50] = test system: MALME-3M melanoma
# [51] = test system: HOP-92 NSCLC
# [52] = test system: NCI/ADR-RES ovarian
# [53] = test system: DU-145 prostate
smiles,measurement,setting,value
Cc1ccc(C(=O)Nc2ccc(CNCCN3CCNCC3)c(C(F)(F)F)c2)cc1C#Cc1cnc2cccnn12,GI50,[1],1780 nM
same,TGI,[1],3480 nM
same,GI50,[2],2170 nM
same,TGI,[2],3910 nM
same,GI50,[3],1920 nM
same,TGI,[3],3730 nM
same,GI50,[4],1820 nM
same,TGI,[4],3270 nM
same,GI50,[5],1770 nM
same,TGI,[5],3300 nM
same,GI50,[6],1770 nM
same,TGI,[6],3380 nM
same,GI50,[7],714 nM
same,TGI,[7],3530 nM
same,GI50,[8],1680 nM
same,TGI,[8],4470 nM
same,GI50,[9],1810 nM
same,TGI,[9],3680 nM
same,GI50,[10],2070 nM
same,TGI,[10],5250 nM
same,GI50,[11],2120 nM
same,TGI,[11],4130 nM
same,GI50,[12],2470 nM
same,TGI,[12],> 100000 nM
same,GI50,[13],1940 nM
same,TGI,[13],3650 nM
same,GI50,[14],1870 nM
same,TGI,[14],3430 nM
same,GI50,[15],1850 nM
same,TGI,[15],3450 nM
same,GI50,[16],1970 nM
same,TGI,[16],3610 nM
same,GI50,[17],1800 nM
same,TGI,[17],3240 nM
same,GI50,[18],1390 nM
same,TGI,[18],2780 nM
same,GI50,[19],1780 nM
same,TGI,[19],3400 nM
same,GI50,[20],1940 nM
same,TGI,[20],4090 nM
same,GI50,[21],1780 nM
same,TGI,[21],3350 nM
same,GI50,[22],1930 nM
same,TGI,[22],3870 nM
same,GI50,[23],1730 nM
same,TGI,[23],3180 nM
same,GI50,[24],1720 nM
same,TGI,[24],3210 nM
same,GI50,[25],1410 nM
same,TGI,[25],2970 nM
same,GI50,[26],2460 nM
same,TGI,[26],5900 nM
same,GI50,[27],1970 nM
same,TGI,[27],3620 nM
same,GI50,[28],1800 nM
same,TGI,[28],3360 nM
same,GI50,[29],1990 nM
same,TGI,[29],3810 nM
same,GI50,[30],2140 nM
same,TGI,[30],4110 nM
same,GI50,[31],1790 nM
same,TGI,[31],3310 nM
same,GI50,[32],1930 nM
same,TGI,[32],3850 nM
same,GI50,[33],1860 nM
same,TGI,[33],3630 nM
same,GI50,[34],1850 nM
same,TGI,[34],3490 nM
same,GI50,[35],1790 nM
same,TGI,[35],3370 nM
same,GI50,[36],2180 nM
same,TGI,[36],4910 nM
same,GI50,[37],1780 nM
same,TGI,[37],3310 nM
same,GI50,[38],2130 nM
same,TGI,[38],3950 nM
same,GI50,[39],2070 nM
same,TGI,[39],4010 nM
same,GI50,[40],1740 nM
same,TGI,[40],3270 nM
same,GI50,[41],1860 nM
same,TGI,[41],3400 nM
same,GI50,[42],1840 nM
same,TGI,[42],3740 nM
same,GI50,[43],1730 nM
same,TGI,[43],3190 nM
same,GI50,[44],1970 nM
same,TGI,[44],3580 nM
same,GI50,[45],1760 nM
same,TGI,[45],3250 nM
same,GI50,[46],2170 nM
same,TGI,[46],3890 nM
same,GI50,[47],1960 nM
same,TGI,[47],3540 nM
same,GI50,[48],2040 nM
same,TGI,[48],4260 nM
same,GI50,[49],1630 nM
same,TGI,[49],3060 nM
same,GI50,[50],1710 nM
same,TGI,[50],3390 nM
same,GI50,[51],1450 nM
same,TGI,[51],3250 nM
same,GI50,[52],7540 nM
same,TGI,[52],26700 nM
same,GI50,[53],1890 nM
same,TGI,[53],3390 nM
